Experimental findings from publication PMC7029871, “Development and validation of a sensitive LC-MS/MS method for the quantitation of IMB-YH-4py5-2H, an antituberculosis candidate, and its application to the pharmacokinetic study” (PLoS ONE, 2020) are described below.

The target of this data set is T1, CYP2B6 (Homo sapiens, UniProt P20813).
T1 construct: purchased Corning (Woburn, MA, USA)
T1 sequence (P20813 1-491): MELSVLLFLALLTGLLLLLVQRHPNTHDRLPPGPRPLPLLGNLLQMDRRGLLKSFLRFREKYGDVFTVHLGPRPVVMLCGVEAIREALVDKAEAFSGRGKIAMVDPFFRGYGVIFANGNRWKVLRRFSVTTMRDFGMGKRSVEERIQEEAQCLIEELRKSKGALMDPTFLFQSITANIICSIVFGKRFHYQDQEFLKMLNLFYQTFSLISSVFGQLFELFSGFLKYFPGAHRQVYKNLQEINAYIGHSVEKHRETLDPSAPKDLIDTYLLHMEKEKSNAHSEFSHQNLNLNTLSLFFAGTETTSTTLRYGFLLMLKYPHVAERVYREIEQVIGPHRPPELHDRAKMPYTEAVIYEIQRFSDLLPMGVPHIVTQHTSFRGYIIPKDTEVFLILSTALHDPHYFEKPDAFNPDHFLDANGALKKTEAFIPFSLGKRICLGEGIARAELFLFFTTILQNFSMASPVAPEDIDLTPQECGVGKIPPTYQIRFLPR
Nature of the data set: Metabolism by recombinant human P450 enzyme. It counts as in vitro ADME. The conditions noted are these: recombinant CYP2B6 0.05 nmol/mL, 1 μM, 30 min. On the procedure:
In addition, to characterize the enzymes that may be involved in microsomal metabolism, IMB-YH-4py5-2H was incubated at 37°C for 30 min with different recombinant human P450 enzymes, i.e., CYP1A2, CYP2A6, CYP2B6, CYP2C8, CYP2C9, CYP2C19, CYP2D6, CYP2E1, CYP3A4 and CYP3A5. The incubation system included CYP isoenzyme at a final concentration of 0.05 nmol/mL, 100 mM PBS (pH 7.4) or 100 mmol/L Tris buffer (pH 7.5, Tris buffer was used in the CYP2C9 and CYP2A6 reaction systems and PBS was used for the other enzymes), NADPH regeneration system, and 1 μM IMB-YH-4py5-2H.
After incubation, the samples were processed as described in “Sample processing”. All experiments were performed in triplicate. The concentration of IMB-YH-4py5-2H was measured using LC-MS/MS analysis.

Consider `CN(C)C(=O)/C=C/C(=O)c1ccc(-c2ccncc2)cc1.Cl` [IMB-YH-4py5-2H, (E)-N,N-dimethyl-4-oxo-4-(4-(pyridin-4-yl)phenyl)but-2-enamide hydrochloride], for which the “metabolism by CYP isozyme” value was “high metabolic activity”.
